Data reported in US9663463B2, “3-azabicyclo[3.1.0]hexane derivative and use thereof for medical purpose” (priority 2013, dated 2017).
Where a name gives a salt, the structure may show the parent alone. Read-outs that look alike come from different tables or passages of the source.

Columns and labels:
[1] = Plasma concentration of test substance at ED50 value (mice, LC/MS/MS); type: in vivo; conditions: at the ED50 value, at time of morphine administration, oral, linear regression from two doses
Method: The concentration of the test substances in blood plasma was confirmed by using mice of the same week-old for the same dose as that used in the evaluation of the anti-pruritic effect. The test substance was administered by forced oral administration of an administration vehicle prepared in a similar manner to that in the evaluation of the anti-pruritic effect under a non-fasting condition. The blood samples were collected from the orbital venous plexus, within from 15 minutes after the administration of the test substance to after 180 minutes at the maximum, for multiple times including the timing at which the morphine solution was intracisternally administered, under inhalation anesthesia with diethyl ether or isoflurane using a heparin-treated hematocrit tubes. The collected blood samples were immediately ice-cooled and centrifuged at 1,800 g for 15 minutes at 4° C., and the plasma fractions were transferred and stored under freezing at −30° C. or less until measurement.
The concentrations of the test substances in plasma were measured using LC/MS/MS. Furthermore, as the measurement samples for LC/MS/MS, the supernatants obtained by adding an internal standard substance and acetonitrile in an amount within a range from 5-fold to 10-fold of the amount of the plasma to the collected plasma samples, and removing proteins therefrom, was used.

human μ-opioid receptor = human μ-opioid receptor (Homo sapiens (Human), UniProt P35372); test: Antagonist activity test using [35S]-GTPγS bond as index using human μ-opioid receptor-expressing cell membrane; type: biochemical
Method: Cells in which a human μ-opioid receptor had been highly expressed was purchased from ChanTest (Cleveland). The cells were cultured in a carbon dioxide gas culturing apparatus by using a Ham's F12 culture medium (Invitrogen) containing 10% of fetal bovine blood serum, 1% of non-essential amino acids, 0.4 mg/ml of G418, 100 U/ml of penicillin and 100 μg/ml of streptomycin. The cultured cells were suspended by using a 0.25% trypsin 1 mM EDTA solution, the suspension was collected by using phosphate-buffered saline and centrifuged at 4° C. and 1,000 rpm for 10 minute to remove the supernatant, whereby a cell mass was obtained. […] Similar homogenization and centrifugation operations were repeated on the sediment, a homogenized buffer was added again to the obtained sediment, and the resultant was similarly homogenized to give a membrane fraction solution. The obtained membrane fraction solution was dispensed, rapidly frozen and stored under freezing at −70° C. or less until use. Furthermore, the protein concentration of the obtained membrane fraction solution was measured by using a BCA protein Assay Kit (Cat. 23227, Pierce) according to the protocol attached to the kit.
The cell membrane fraction solution in which the human μ-opioid receptor had expressed, which had been stored under freezing, was melted, a GTP assay buffer (100 mM NaCl, 5 mM MgCl2, 1 mM EDTA-containing 50 mM Hepes (pH 7.4)) was added thereto, and the resultant was homogenized repeatedly twice by using a Polytron homogenizer (SMT Multi Disperser PB95) under ice cooling at 12,000 rpm for 20 seconds to give a homogeneous solution, and the homogeneous solution was diluted to 0.036 mg/ml with a GTP assay buffer containing 18.2 μM of GDP (final concentration: […]). The dilution was incubated for 15 minutes or more under ice cooling until the reaction was initiated. […] [^35S]-GTPγS (NEG030X, Perkinelmer) was diluted with a GTP assay buffer so as to be 0.616 nM (final concentration: 0.08 nM). The resultant was diluted with a GTP assay buffer so as to be 200 nM (final concentration: 10 nM) by using [D-Ala^2, N-Me-Phe^4, Gly^5-ol]-enkephalinacetate (DAMGO, Sigma) as a μ-opioid receptor agonist. WGA Coated PVT SPA Beads (RPNQ0001, Perkinelmer) were added so as to be 20 mg/ml with a GTP assay buffer, and the resultant was suspended (final concentration: 1 mg/well). 4 μL/well of a test substance solution, 10 μL/well of a DAMGO solution, 26 μL/well of a [^35S]-GTPγS solution, […] of a suspension liquid of WGA Coated PVT SPA Beads, and 110 μL/well of the membrane fraction solution were added to a 96 well plate (1450-401, Perkinelmer), the top part of the plate was sealed, and a reaction was performed at 30° C. for 60 minutes under stirring with a plate shaker. For each measurement plate, a well to which DMSO had been added instead of the test substance, and a well to which DMSO had been added instead of the test substance and a GTP assay buffer had been added instead of the DAMGO solution were prepared. Furthermore, after the reaction was completed, the reactant was centrifuged at room temperature and 1,000 rpm for 3 minutes, and the radioactivity was measured by a microplate scintillation luminescence counter (Perkinelmer).
The IC50 value of the test substance was calculated by using Graphpad Prism 5.

Mice serum protein = test: in vitro; type: in vitro ADME; conditions: murine serum, equilibrium dialysis, 37° C., 5 to 6 hours
Method: (§1) The protein binding rate was determined by equilibrium dialysis method using the RED Device (8K MWCO, Rapid Equilibrium Dialysis Device, Thermo Scientific). The test substances that had been dissolved in DMSO were added to the serum that was collected from Crl: CD-1 (ICR) mice fasted overnight, so that the final concentration of DMSO became 1% (v/v). The serum to which the test substance had been added was added to the inner side of the dialysis membrane of the RED Device, and PBS (phosphate buffer saline, pH 7.4) containing 0.01% (v/v) Tween 80 was added to the outside in accordance with the method for using the RED Device and incubated at 37° C. for 5 to 6 hours with ellipsoidal shaking at 100 rpm so that the concentration of the unbound test substance in the serum and the concentration of the test substance in the PBS reached equilibrium. After the incubation was completed, the respective solutions were collected and stored under freezing at −60° C. or less as measurement samples. The proteins were removed from the measurement sample by adding acetonitrile in an amount of 5-fold or more of the amount of the internal standard substance and the serum sample, and the supernatants were measured by LC/MS/MS (liquid chromatograph—triple quadrupole mass spectrometer). The serum samples were measured after suitably diluting with distilled water as necessary.
(§2) A: the concentration of the test substance in the PBS sample
(§3) B: the concentration of the test substance in the serum sample

[2] = test system: pruritus mice model to which morphine had been intracisternally administered; test: Anti-pruritic effect in pruritus mice model to which morphine had been intracisternally administered; type: in vivo; conditions: oral administration, male ICR mice, inhibition of morphine-induced scratching behavior
Method: As experimental animals, male ICR (Cr1j: CD1 (ICR): Charles River Japan) mice were used at 5 to 6-week old. The mice were placed in an acrylic cage (colorless and transparent, W 13.5 cm×D 9.5 cm×H 40 cm) for observing scratching behavior for 30 minutes or more to thereby allow the mice to get used to the observation environment, and the test substance solutions were forcedly orally administered to the test substance-administered groups. In addition, an administration vehicle was forcedly orally administered to the normal control group and the pathological control group. A necessary amount of the test substance was weighed and formed into a micropowder in an agate mortar, an administration vehicle, a 0.5 w/v % methyl cellulose 400 solution (Wako Pure Chemical Industries Ltd.) was added little by little, and preparation was performed by suspending or dissolving so as to give an intended concentration (from 0.025 to 3 mg/ml). The test doses were preset to suitable doses in the range in which the maximum dose is 30 mg/10 ml/kg.
Based on 30 minutes after the forced oral administration of the test substance as a criterion, the time for the intracisternal administration of morphine was suitably set up to 120 minutes after at the maximum, with consideration for the times of maximum plasma concentration of the respective test substances, in the case when the in vivo pharmacokinetics of the test substance had been confirmed in advance. Furthermore, saline was intracisternally administered to the normal control group, and the above-mentioned morphine solution was intracisternally administered to the pathogenic control group, so as to be 5 μL/site at the same time as that of the test substance group after the forced oral administration of the administration vehicle in either case.
The behavior of each mouse within 60 minutes from the intracisternal administration of the morphine solution or saline was recorded by a digital video camera that was installed immediately above the acrylic cage, the images were stored in a digital video recorder, and the number of frequency of the scratching behavior was measured. The number of frequency of the scratching behavior was measured with deeming a behavior in which the mouse raised its hindlimb, scratched the facial surface and the peripheral sites thereof, and got the hindlimb off from the body within 30 minutes from after the intracisternal administration of the morphine or saline as one time.
The anti-pruritic effect of each test substance was obtained as follows. As an inhibition ratio against the number of frequency of the scratching behavior on the pathological control group, the inhibition ratio (%) of the respective individuals and the average value thereof were calculated from the following formula, and an ED50 value was calculated based on the obtained inhibition ratio. Inhibition ratio of each individual (%)={1−(A−Vehicle)/(Morphine−Vehicle)}×100 Morphine: the average of the scratching number of the pathological control group Vehicle: the average of the scratching number of the normal control group A: the scratching number of each individual in the test substance-administered group

in vitro = in vitro ADME, mice; conditions: Crl:CD-1 (ICR), mouse, pH 7.4; murine serum, equilibrium dialysis, 37° C., 5 to 6 hours; read-out: Protein binding rate (converted)
Method: as §1, §2, §3

hERG = hERG (Homo sapiens (Human), UniProt Q12809); test: Safety margin against hERG inhibitory activity; conditions: hERG IC50×1000/{concentration in plasma at ED50×(1−protein binding rate/100)}
Method: In order to compare the risks of extension of QT interval prolongation in the electrocardiogram among the test substances, the safety margins against the hERG inhibitory effect were calculated. […] Therefore, the following formula was used for calculating the safety margin, and the obtained values were described in Table 7. Safety margin against hERG inhibitory effect=IC50×1000/{concentration in plasma×(1−protein binding rate/100)}
IC50: the IC50 value in a hERG inhibition assay (μM)
Plasma concentration: the plasma concentration of test substance (nM) at the ED50 value in the test for evaluating the anti-pruritic effect in the morphine model
Protein binding rate: the protein binding rate (%) in the protein binding assay in murine serum

hERG current = hERG current (Homo sapiens (Human), UniProt Q12809); test: cell-based
From the text: A: the suppression rate (%) of the test substance in each cell
B: the average suppression rate (%) of the vehicle control group

Sequence of hERG current (Q12809 whole entry): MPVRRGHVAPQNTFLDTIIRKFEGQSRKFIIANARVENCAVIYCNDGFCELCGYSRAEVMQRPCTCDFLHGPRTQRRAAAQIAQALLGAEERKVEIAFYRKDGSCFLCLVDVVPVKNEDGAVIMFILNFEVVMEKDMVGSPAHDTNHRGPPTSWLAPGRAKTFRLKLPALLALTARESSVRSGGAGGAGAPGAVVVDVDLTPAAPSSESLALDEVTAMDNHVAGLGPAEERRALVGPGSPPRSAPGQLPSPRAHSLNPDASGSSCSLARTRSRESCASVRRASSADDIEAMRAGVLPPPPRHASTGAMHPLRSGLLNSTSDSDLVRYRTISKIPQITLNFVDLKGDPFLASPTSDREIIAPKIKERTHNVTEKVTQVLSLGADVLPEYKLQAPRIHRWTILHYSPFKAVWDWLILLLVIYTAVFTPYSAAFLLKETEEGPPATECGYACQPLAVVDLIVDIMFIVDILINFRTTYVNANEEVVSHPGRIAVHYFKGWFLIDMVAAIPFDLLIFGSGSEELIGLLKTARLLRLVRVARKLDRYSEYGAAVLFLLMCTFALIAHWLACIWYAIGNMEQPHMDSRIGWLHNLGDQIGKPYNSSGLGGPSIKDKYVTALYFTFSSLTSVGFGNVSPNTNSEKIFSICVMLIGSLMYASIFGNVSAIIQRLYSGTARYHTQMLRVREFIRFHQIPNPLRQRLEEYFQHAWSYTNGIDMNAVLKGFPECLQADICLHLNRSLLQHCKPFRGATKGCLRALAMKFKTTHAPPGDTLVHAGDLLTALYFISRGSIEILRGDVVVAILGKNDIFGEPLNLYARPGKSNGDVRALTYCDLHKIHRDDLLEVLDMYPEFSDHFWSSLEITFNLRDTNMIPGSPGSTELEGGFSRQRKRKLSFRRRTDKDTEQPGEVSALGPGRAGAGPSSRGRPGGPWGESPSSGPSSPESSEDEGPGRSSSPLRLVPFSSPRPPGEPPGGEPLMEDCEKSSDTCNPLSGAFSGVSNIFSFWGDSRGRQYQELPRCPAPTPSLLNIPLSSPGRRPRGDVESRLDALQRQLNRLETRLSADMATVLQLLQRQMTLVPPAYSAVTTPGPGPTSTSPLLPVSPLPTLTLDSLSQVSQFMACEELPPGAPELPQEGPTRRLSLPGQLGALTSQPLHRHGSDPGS

CC[C@]1(c2cccc(NS(C)(=O)=O)c2)[C@@H]2CN(CC3(O)Cc4ccccc4C3)C[C@@H]21.CS(=O)(=O)O [Comparative compound 1, N-(3-{(1R,5S,6r)-6-ethyl-3-[(2-hydroxy-2,3-dihydro-1H-inden-2-yl)methyl]-3-azabicyclo[3.1.0]hexan-6-yl}phenyl)methanesulfonamide methanesulfonate, reference compound]
Plasma concentration of test substance [1]: 157 nM
IC50 (human μ-opioid receptor; inhibition of DAMGO (10 nM)-stimulated [35S]-GTPγS binding, human μ-opioid receptor membrane, read-out: IC50): 1.3 nM
Protein binding rate (Mice serum protein): 93.2%
ED50 [2]: 2.6 mg/kg

CC[C@]1(c2cccc(NS(=O)(=O)C3CC3)c2)[C@@H]2CN(CC3(O)Cc4ccccc4C3)C[C@@H]21 [Example 1-(a), N-(3-{(1R,5S,6r)-6-ethyl-3-[(2-hydroxy-2,3-dihydro-1H-inden-2-yl)methyl]-3-azabicyclo[3.1.0]hexan-6-yl}phenyl)cyclopropanesulfonamide]
Plasma concentration of test substance [1]: 70.8 nM
fraction unbound (in vitro): 0.019
Safety margin (hERG): 82
ED50 ([2]; Mus musculus, read-out: ED50): 3.5 mg/kg
IC50 (hERG current): 110 nM

CC[C@]1(c2cccc(NS(=O)(=O)C3CC3)c2)[C@@H]2CN(CC3(OC)Cc4ccccc4C3)C[C@@H]21 [Example 3-(b), N-(3-{(1R,5S,6r)-6-ethyl-3-[(2-methoxy-2,3-dihydro-1H-inden-2-yl)methyl]-3-azabicyclo[3.1.0]hexan-6-yl}phenyl)cyclopropanesulfonamide hydrochloride]
Plasma concentration of test substance [1]: 48.8 nM
IC50 (human μ-opioid receptor): 3.6 nM
Safety margin (hERG): 1980
ED50 ([2]; Mus musculus, read-out: ED50): 4.2 mg/kg
IC50 (hERG current): 580 nM

CC[C@]1(c2cccc(NS(=O)(=O)C3CC3)c2)[C@@H]2CN(CCCC3(OC)CCC(F)(F)CC3)C[C@@H]21 [Example 6-(b), N-(3-{(1R,5S,6r)-3-[3-(4,4-difluoro-1-methoxycyclohexyl)propyl]-6-ethyl-3-azabicyclo[3.1.0]hexan-6-yl}phenyl)cyclopropanesulfonamide hydrochloride]
fraction unbound (in vitro): 0.039
ED50 ([2]; Mus musculus, read-out: ED50): 0.42 mg/kg
IC50 (hERG current): 660 nM

CC[C@]1(c2cccc(NS(=O)(=O)C3CC3)c2)[C@@H]2CN(CCCN3CCC(F)(F)CC3)C[C@@H]21 [Example 7-(b), N-(3-{(1R,5S,6r)-3-[3-(4,4-difluoropiperidin-1-yl)propyl]-6-ethyl-3-azabicyclo[3.1.0]hexan-6-yl}phenyl)cyclopropanesulfonamide hydrochloride]
Plasma concentration of test substance [1]: 21.5 nM
IC50 (human μ-opioid receptor): 1.4 nM
Safety margin (hERG): 375
ED50 ([2]; Mus musculus, read-out: ED50): 2.4 mg/kg
IC50 (hERG current): 1200 nM

C[C@]1(c2cccc(NS(=O)(=O)C3CC3)c2)[C@@H]2CN(CC3(O)Cc4ccccc4C3)C[C@@H]21 [Example 17-(b), N-(3-{(1R,5S,6r)-3-[(2-hydroxy-2,3-dihydro-1H-inden-2-yl)methyl]-6-methyl-3-azabicyclo[3.1.0]hexan-6-yl}phenyl)cyclopropanesulfonamide hydrochloride]
Plasma concentration of test substance [1]: 68.2 nM
IC50 (human μ-opioid receptor): 5.4 nM
Safety margin (hERG): 48
ED50 ([2]; Mus musculus, read-out: ED50): 1.5 mg/kg
IC50 (hERG current): 130 nM
